Source: patent US7105521B2, “Eugenosedin-A based pharmacoligical agents” (Syn-Tech Chem & Pharm Co., Ltd., priority 2003, dated 2006)

Tests used:
β1-adrenoceptor = biological target: T1, β1-adrenoceptor (Rattus norvegicus, UniProt P18090); test: Isoprenaline-induced positive inotropic effect in electrically stimulated rat left atria; type: cell-based; conditions: 10^−8, 10^−7, 10^−6 M, isolated rat left atria
T1 construct: isoprenaline-induced concentration-response curves in isolated rat left atria; from tissue; host or cells: isolated rat left atria
Experimental: Isolation of rat left atria. Rats of either sex weighing 350–500 g were sacrificed after mild anesthesia with ether, and their hearts were quickly excised. Left atria were dissected from the hearts and mounted in a 10 ml organ bath with one end fixed and the other end connected to a force displacement transducer (Grass, Model FT03). The experiments were carried out at 37° C. in a Krebs solution of the following composition (mM): NaCl 113, KCl 4.8, CaCl2 2.2, KH2PO4 1.2, MgCl2 1.2, NaHCO3 25, Dextrose 11.0; bubbled with a 95% O2+5% CO2 mixture. Atria were pre-stretched to a baseline tension of 0.5 g and equilibrated for 60 min in an aerated Krebs solution before starting experimental protocols. Atria were driven at 2-s intervals via two platinum electrodes on each side. An incubation time of 30 min was allowed for the test compound. Data were calculated as a percentage of the maximum contraction (Wu et al., 2001).

[1] = system: Fe2+-ascorbic acid-induced lipid peroxidation; test: Lipid peroxidation (TBARS) in rat brain homogenate; type: biochemical; conditions: n=5, read-out: IC50 of inhibition of Fe2+-ascorbic acid-induced lipid peroxidation
Experimental: Antioxidant and peroxyl radical scavenging activities. Rat brain homogenate was made in 0.9% saline containing 10 mg tissue/ml. The rates of membrane lipid peroxidation were measured by the formation of thiobarbituric acid (TBA)-reactive substance (TBARS). Rat brain homogenates (1 ml) were incubated at 37° C. for 5 min with 10 μl of test compound or vehicle. Lipid peroxidation was initiated by the addition of 0.1 ml of 0.25 mM FeCl2 and 1 mM ascorbic acid (Huang Y C. et al., Drug. Dev. Res., 47:77–89, 1999). After 30 min of incubation, the reaction was stopped by adding 0.1 ml of 0.2% BHT. TBA reagent was then added and the mixture was heated for 30 min in a boiling water bath. TBARS was extracted by n-butanol and measured at 532 nm. The amount of TBARS was quantified using the linear regression obtained from malondialdehyde (MDA) standards.

IL-6 = test: Plasma cytokine immunoreactivity after LPS: IL-6; type: in vivo, Wistar rats; conditions: 3 hours after LPS 10 mg kg^−1 i.v.; pretreatment 1 mg kg^−1 i.v.
Experimental: (§1) Plasma cytokine immunoreactivity and blood glucose. Blood was collected from venous cannula, injected into ice-cold heparinized Eppendorf tubes and centrifuged at 1500 rpm for 10 min at 4° C. Plasma supernatant was stored at −70° C. until analyzed. Solid phase enzyme immunoassay that specifically detects murine IL-1β, IL-6, IFN-γ and TNF-α was used with a detection limit of >10 pg/ml (Endogen, U.S.A). Pretreatment with eugenosedin-A and other agents was performed 15 minutes before intravenous injection of LPS. Blood was collected from venous cannula. Blood glucose was measured with a glucose test strip (Glucotide, Bayer, U.S.A) at 1, 3 and 5 hours.

LPS-induced hypotension = type: in vivo, Wistar rats; conditions: LPS 10 mg kg^−1 i.v.
Experimental: (§2) Intravenous injection. The experiments were carried out as previously described (Wu B N. et al., Biochem. Pharmacol., 48:101–109, 1994). In brief, Wistar rats weighing 250–300 grams were anesthetized with pentobarbital sodium (50 mg kg^−1, i.p.). Following tracheal cannulation, systemic arterial BP and HR were recorded from the femoral artery by a pressure transducer (model P10EZ; Spectramed, Oxnard, Calif., U.S.A.) connected to a recorder (GOULD, Valley View, Ohio, Model P50). Body temperature was maintained at 37° C. by an electric heating pad. A femoral vein was cannulated for intravenous injection of drugs and LPS (10 mg kg^−1).

α1-adrenoceptors = test: Noradrenaline-induced contraction of isolated rat thoracic aorta; type: cell-based; conditions: 10^−8, 10^−7, 10^−6 M
Text: (§3) Isolation of rat thoracic aorta. Rat thoracic aorta was removed, cleaned of adhering fat and connective tissue and cut into 3–4 mm wide transverse rings.

IFN-γ = test: Plasma cytokine immunoreactivity after LPS: IFN-γ; type: in vivo, Wistar rats; conditions: 3 hours after LPS 10 mg kg^−1 i.v.; pretreatment 1 mg kg^−1 i.v.
Experimental: as §1

α2-adrenergic receptors = test: Clonidine-induced contraction of isolated rat thoracic aorta; type: cell-based; conditions: 10^−8, 10^−7, 10^−6 M
Text: as §3

IL-1β = test: Plasma cytokine immunoreactivity after LPS: IL-1β; type: in vivo, Wistar rats; conditions: 3 hours after LPS 10 mg kg^−1 i.v.; pretreatment (eugenosedin-A 1 mg kg^−1 i.v.)
Experimental: as §1

[2] = Micro-injection in NTS: BP and HR; type: in vivo, rats; conditions: NTS micro-injection, 0.03, 0.3 μmol, within 30 minutes after injection
Text: Micro-injection in NTS. Rats were anesthetized and placed in a David-Kopf stereotaxic instrument. The cerebellum was exposed after removing the skin and occipital bone. […] At the end of experiments, the animals were sacrificed. The brain was removed and sectioned for histological confirmation of the drug application site.

[3] = Intra-cisternal injections: mean arterial BP and HR; type: in vivo, rats
Experimental: Intra-cisternal injections. […] Briefly, rats weighing 250–300 g were anaesthetized with pentobarbital sodium (50 mg kg^−1, i.p.) and mounted in a David-Kopf stereotaxic instrument (Yeh J L. et al., Brain. Res. Bull., 30:641–648, 1993). The calvarium was exposed and a 1 mm diameter trephine hole was drilled 1.8 mm lateral to the coronary and 1.5 mm posterior to the sagittal sutures. A cannula (0.7 mm O.D.) connected to a Hamilton syringe (RN-705, 5051) by PE-50 was advanced 4.7 mm into the brain using the electrode carrier.

[4] = Intravenous injection: BP and HR in pentobarbital-anesthetized rats; type: in vivo, Wistar rats
Experimental: as §2

[5] = i.v., pentobarbital-anesthetized rats

T1 sequence (P18090 whole entry): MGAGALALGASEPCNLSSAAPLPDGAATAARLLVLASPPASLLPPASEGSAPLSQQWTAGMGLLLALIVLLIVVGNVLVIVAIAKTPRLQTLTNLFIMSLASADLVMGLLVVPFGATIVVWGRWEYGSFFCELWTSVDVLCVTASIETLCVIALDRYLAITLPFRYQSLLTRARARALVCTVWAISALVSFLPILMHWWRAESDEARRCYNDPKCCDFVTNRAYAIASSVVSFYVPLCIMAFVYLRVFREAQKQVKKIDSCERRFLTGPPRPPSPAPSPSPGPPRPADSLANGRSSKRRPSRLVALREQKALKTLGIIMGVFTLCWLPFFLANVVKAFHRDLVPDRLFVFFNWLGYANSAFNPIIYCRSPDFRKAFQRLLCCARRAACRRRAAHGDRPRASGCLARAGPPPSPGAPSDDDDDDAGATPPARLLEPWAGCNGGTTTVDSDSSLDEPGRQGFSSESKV

With CC=Cc1ccc(OCC(O)CN2CCN(c3ccccc3Cl)CC2)c(OC)c1 (stereo not shown) [eugenosedin-A] the “cumulative isoprenaline-induced positive inotropic effects” value (β1-adrenoceptor) was “concentration-dependently inhibited”, the IC50 [1] was 2680 ± 50 nM and the “LPS-induced increase in IL-6” value (IL-6) was “significantly inhibited”. The “development of hypotension after LPS injection and normalization of BP” value (LPS-induced hypotension; i.v. pretreatment) was “normalized BP within 5 hours”, the “first immediate hypotensive phase after LPS” value (LPS-induced hypotension; pretreatment 0.5 mg kg^−1 i.v.) was “not affected” and the “first immediate hypotensive phase after LPS” value (LPS-induced hypotension; pretreatment 1 mg kg^−1 i.v.) was “attenuated it”. The “second prolonged hypotensive phase after LPS” value (LPS-induced hypotension; pretreatment 0.5 and 1 mg kg^−1 i.v.) was “significantly reduced”, the “cumulative noradrenaline-induced contractile activities” value (α1-adrenoceptors) was “competitively inhibited” and the “LPS-induced increase in IFN-γ” value (IFN-γ) was “significantly inhibited”. The “cumulative clonidine-induced contractile activities” value (α2-adrenergic receptors) was “competitively inhibited”, the “LPS-induced increase in IL-1β” value (IL-1β) was “significantly inhibited” and the “pressor response and HR” value [2] was “mild, but significant, pressor responses and increased the HR”. The “increase of HR” value ([3]; 0.3 μmol) was “up to 60 bpm”, the pressor response ([3]; 0.3 μmol) was “up to 15 mmHg” and the “effect on mean arterial BP and HR” value ([3]; eugenosedin-A and trazodone 0.3, 0.03 μmol, yohimbine 0.03 μmol) was “increased mean arterial BP and HR”. The “effect on arterial blood pressure after acute intravenous injection” value ([4]; 0.1, 0.5, 1.0 mg kg^−1 i.v., pentobarbital-anesthetized Wistar rats) was “mild arterial hypotension”, the “depressor effect compared with trazodone and ketanserin” value ([4]; i.v., pentobarbital-anesthetized Wistar rats) was “less than that of trazodone and ketanserin” and the “mean BP and HR after intravenous administration” value [4, 5] was “dose-dependent decrease in mean BP and HR”. For the same molecule, the “phenylephrine- and isoprenaline-induced changes in BP and HR” value [4, 5] was “inhibited phenylephrine- and isoprenaline-induced changes in BP and HR”.
